Data reported in patent publication US5464617A, “β-lactam compounds” (Hoffmann-La Roche Inc., priority 1994, dated 1995).
In brackets after ≈: the same amount, converted by molar mass. Where a name gives a salt, the structure may show the parent alone. Blank lines part the entries; values can stand above or below the compound they belong to.

How the values were obtained:
[1] = tested on: Citrobacter freundii 1982; assay: MIC in vitro of a 1:4 combination of ceftriaxone with a compound of formula I (Test D); format: cell-based; details: 1:4 combination of ceftriaxone with the compound; for MIC C. freundii 1982 (D): Table 4, test D; for MIC C. freundii 1982: Table 2
Protocol: The minimum inhibitory concentration in vitro ([…]) of a 1:4 combination of ceftriaxone with a compound of formula I against Citrobacter freundii 1982 was measured and compiled in Table 2 hereinafter.

E. coli 1346 = assay: Antibacterial activity of the products per se, serial dilution method in liquid medium (Test E); format: cell-based; details: product per se; for MIC E. coli 1346 (E): Table 4, test E; for MIC E. coli 1346: Table 3, liquid medium
Source text: The antibacterial activity of the products per se is illustrated on the basis of Table 3 hereinafter, the minimum inhibitory concentration […] in vitro against E. coli 1346 being determined using the serial dilution method in liquid medium: […]

SMILES: Cn1nnnc1SCC1=C(C(=O)O)N2C(=O)[C@@H]3[C@H]2[C@@H](CN3C(=O)Nc2ccc(C(N)=O)cc2)O1 [31(i), (1aS,3aR,6bS)-2-(4-Carbamoyl-phenylcarbamoyl)-5-(1-methyl-1H-tetrazol-5-ylsulphanylmethyl)-1-oxo-1,1a,2,3,3a,6b-hexahydro-4-oxa-2,6a-diazacyclobut[cd]indene-6-carboxylic acid sodium salt]
MIC C. freundii 1982 (D) [1]: 0.5 µg/mL
MIC E. coli 1346 (E) (E. coli 1346): 8 µg/mL

SMILES: Cn1nnnc1SCC1=C(C(=O)O)N2C(=O)[C@H]3NC[C@@H](O1)[C@H]32 [Example 29(e), (1aS,3aR,6bS)-5-(1-Methyl-1H-tetrazol-5-ylsulphanylmethyl)-1-oxo-1,1a,2,3,3a,6b-hexahydro-4-oxa-2,6a-diazacyclobut[cd]indene-6-carboxylic acid sodium salt]
MIC C. freundii 1982 (D) [1]: 0.5 µg/mL
MIC E. coli 1346 (E) (E. coli 1346): 1 µg/mL

SMILES: O=C(O)CC1=C(C(=O)O)N2C(=O)[C@@H]3[C@H]2[C@H](C1)CN3C(=O)Nc1ccc(O)cc1 [13(a), (1aS,3aR,6bR)-5-carboxymethyl-2-(4-hydroxy-phenycarbamoyl)-1-oxo-1a,2,3,3a,4,6b-hexahydro-1H-2,6a-diazacyclobut[cd]indene-6-carboxylic acid sodium salt]
MIC C. freundii 1982 [1]: 1 µg/mL
MIC E. coli 1346 (E. coli 1346): 4 µg/mL

SMILES: Cc1nnc(SCC2=C(C(=O)O)N3C(=O)[C@H]4NC[C@@H](C2)[C@H]43)s1 [Example 63, (1aS,3aR,6bR)-5-(5-Methyl-1,3,4-thiadiazol-2-ylsulphanylmethyl)-1-oxo-1a,2,3,3a,4,6b-hexahydro-1H-2,6a-diazacyclobut[cd]indene-6-carboxylic acid trifluoroacetate]
MIC C. freundii 1982 (D) [1]: 2 µg/mL
MIC E. coli 1346 (E) (E. coli 1346): 8 µg/mL

SMILES: N#C/C=C\C1=C(C(=O)O)N2C(=O)[C@H]3NC[C@@H](C1)[C@H]32 [48(a), (Z)-(1aS,3aR,6bR)-5-(2-Cyanovinyl)-1-oxo-1a,2,3,3a,4,6b-hexahydro-1H-2,6a-diazacyclobut[cd]indene-6-carboxylic acid trifluoroacetate]
MIC C. freundii 1982 (D) [1]: 4 µg/mL
MIC E. coli 1346 (E) (E. coli 1346): 16 µg/mL

SMILES: [N-]=[N+]=NCC1=C(C(=O)O)N2C(=O)[C@H]3NC[C@@H](C1)[C@H]32 [Example 81, (1aS,3aR,6bR)-5-Azidomethyl-1-oxo-1a,2,3,3a,4,6b-hexahydro-1H-2,6a-diazacyclobut[cd]indene-6-carboxylic acid trifluoroacetate]
MIC C. freundii 1982 (D) [1]: 1 µg/mL
MIC E. coli 1346 (E) (E. coli 1346): 1 µg/mL

SMILES: O=C([O-])C1=C(C[n+]2ccccc2)C[C@@H]2CN[C@@H]3C(=O)N1[C@H]23 [Example 22, (1aS,3aR,6bR)-1-Oxo-5-(pyridin-1-yliomethyl)-1a,2,3,3a,4,6b-hexahydro-1H-2,6a-diazacyclobut[cd]indene-6-carboxylate trifluoroacetate]
MIC C. freundii 1982 [1]: 4 µg/mL
MIC E. coli 1346 (E. coli 1346): 4 µg/mL

SMILES: O=C(Nc1ccc(O)cc1)OCC1=C(C(=O)O)N2C(=O)[C@H]3NC[C@@H](C1)[C@H]32 [Example 89, (1aS,3aR,6bR)-5-(4-Hydroxy-phenylcarbamoyloxymethyl)-1-oxo-1a,2,3,3a,4,6b-hexahydro-1H-2,6a-diazacyclobut[cd]indene-6-carboxylic acid trifluoroacetate]
MIC C. freundii 1982 (D) [1]: 2 µg/mL
MIC E. coli 1346 (E) (E. coli 1346): 4 µg/mL

SMILES: O=C(O)C1=C(CSc2ncccn2)C[C@@H]2CN(C(=O)C(F)(F)F)[C@@H]3C(=O)N1[C@H]23 [72(b), (1aS,3aR,6bR)-1-Oxo-5-(pyrimidin-2-ylsulphanylmethyl)-2-trifluoroacetyl-1a,2,3,3a,4,6b-hexahydro-1H-2,6a-diazacyclobut[cd]indene-6-carboxylic acid sodium salt]
MIC C. freundii 1982 (D) [1]: 2 µg/mL
MIC E. coli 1346 (E) (E. coli 1346): 4 µg/mL

SMILES: O=C(Cn1nnnc1SCC1=C(C(=O)O)N2C(=O)[C@H]3NC[C@@H](C1)[C@H]32)NCCc1ccccc1 [Example 79, (1aS,3aR,6bR)-1-Oxo-5-[1-(phenethylcarbamoylmethyl)-1H-tetrazol-5-ylsulphanylmethyl]-1a,2,3,3a,4,6b-hexahydro-1H-2,6a-diazacyclobut[cd]indene-6-carboxylic acid trifluoroacetate]
MIC C. freundii 1982 (D) [1]: 4 µg/mL
MIC E. coli 1346 (E) (E. coli 1346): 2 µg/mL

SMILES: NC(=O)OCC1=C(C(=O)O)N2C(=O)[C@@H]3[C@H]2[C@H](C1)CN3C(=O)NCc1cccs1 [27(f), (1aS,3aR,6bR)-5-Carbamoyloxymethyl-2-(thiophen-2-ylmethylcarbamoyl)-1-oxo-1a,2,3,3a,4,6b-hexahydro-1H-2,6a-diaza-cyclobut[cd]indene-6-carboxylic acid sodium salt]
MIC C. freundii 1982 (D) [1]: 0.25 µg/mL
MIC E. coli 1346 (E) (E. coli 1346): ≤ 0,25 μg/ml

SMILES: Cn1ccnc1SCC1=C(C(=O)O)N2C(=O)[C@H]3NC[C@@H](S1)[C@H]32 [40(c), (1aS,3aR,6bS)-5-(1-Methyl-imidazol-2-ylsulphanyl-methyl)-1-oxo-4-thia-1,1a,2,3,3a,6b-hexahydro-2,6a-diazacyclobut[cd]indene-6-carboxylic acid]
MIC C. freundii 1982 (D) [1]: 0.5 µg/mL
MIC E. coli 1346 (E) (E. coli 1346): > 32 µg/mL

SMILES: N#C/C=C/C1=C(C(=O)O)N2C(=O)[C@H]3NC[C@@H](C1)[C@H]32 [48(b), (E)-(1aS,3aR,6bR)-5-(2-Cyanovinyl)-1-oxo-1a,2,3,3a,4,6b-hexahydro-1H-2,6a-diazacyclobut[cd]indene-6-carboxylic acid trifluoroacetate]
MIC C. freundii 1982 (D) [1]: 2 µg/mL
MIC E. coli 1346 (E) (E. coli 1346): 4 µg/mL

Continued, values first:

MIC C. freundii 1982 (D) [1]: 0.5 µg/mL
MIC E. coli 1346 (E) (E. coli 1346): > 32 µg/mL
SMILES: CC(=O)NCC1=C(C(=O)O)N2C(=O)[C@@H]3[C@H]2[C@H](C1)CN3C(=O)Nc1ccc(O)cc1 [Example 85, (1aS,3aR,6bR)-5-Acetylaminomethyl-2-(4-hydroxy-phenylcarbamoyl)-1-oxo-1a,2,3,3a,4,6b-hexahydro-1H-2,6a-diazacyclobut[cd]indene-6-carboxylic acid sodium salt]

MIC C. freundii 1982 [1]: 4 µg/mL
MIC E. coli 1346 (E. coli 1346): 8 µg/mL
SMILES: COC(=O)CC1=C(C(=O)O)N2C(=O)[C@H]3NC[C@@H](C1)[C@H]32 [Example 12(b), (1aS,3aR,6bR)-5-Methoxycarbonylmethyl-1-oxo-1a,2,3,3a,4,6b-hexahydro-1H-2,6a-diazacyclobut[cd]indene-6-carboxylic acid trifluoroacetate]

MIC C. freundii 1982 (D) [1]: 32 µg/mL
MIC E. coli 1346 (E) (E. coli 1346): > 32 µg/mL
SMILES: O=C(Cn1nnnc1SCC1=C(C(=O)O)N2C(=O)[C@H]3NC[C@@H](O1)[C@H]32)NCCc1ccccc1 [29(h), (1aS,3aR,6bS)-1-Oxo-5-(1-(phenylethyl-carbamoylmethyl)-1H-tetrazol-5-ylsulphanylmethyl)-1,1a,2,3,3a,6b-hexahydro-4-oxa-2,6a-diazacydobut[cd]indene-6-carboxylic acid]

MIC C. freundii 1982 (D) [1]: 2 µg/mL
MIC E. coli 1346 (E) (E. coli 1346): 16 µg/mL
SMILES: Cn1nnnc1SCC1=C(C(=O)O)N2C(=O)[C@@H]3[C@H]2[C@H](C1)CN3CC(=O)Nc1ccc(O)cc1 [61(b), (1aS,3aR,6bR)-2-(4-Hydroxy-phenylcarbamoylmethyl)-5-(1-methyl-1H-tetrazol-5-ylsulphanylmethyl)-1-oxo-1a,2,3,3a,4,6b-hexahydro-1H-2,6a-diazacyclobut[cd]indene-6-carboxylic acid sodium salt]

MIC C. freundii 1982 (D) [1]: 2 µg/mL
MIC E. coli 1346 (E) (E. coli 1346): 8 µg/mL
SMILES: N#CCC(=O)N1C[C@H]2CC(Sc3nnc(N)s3)=C(C(=O)O)N3C(=O)[C@@H]1[C@@H]23 [3(ag), (1aS,3aR,6bR)-5-(5-Amino-1,3,4-thiadiazol-2-ylsulphanyl)-2-cyanoacetyl-1-oxo-1a,2,3,3a,4,6b-hexahydro-1H-2,6a-diazacyclobut[cd]indene-6-carboxylic acid sodium salt]

MIC C. freundii 1982 (D) [1]: 0.5 µg/mL
MIC E. coli 1346 (E) (E. coli 1346): 2 µg/mL
SMILES: Nc1nnc(SCC2=C(C(=O)O)N3C(=O)[C@@H]4[C@H]3[C@H](C2)CN4C(=O)C(F)(F)F)s1 [19(h), (1aS,3aR,6bR)-5-(5-Amino-1,3,4-thiadiazol-2-ylsulphanylmethyl)-1-oxo-2-trifluoroacetyl-1a,2,3,3a,4,6b-hexahydro-1H-2,6a-diaza-cyclobut[cd]indene-6-carboxylic acid sodium salt]

MIC C. freundii 1982 (D) [1]: 2 µg/mL
MIC E. coli 1346 (E) (E. coli 1346): > 32 µg/mL
SMILES: Cn1nc[n+](C)c1CSC1=C(C(=O)[O-])N2C(=O)[C@@H]3[C@H]2[C@H](C1)CN3C(=O)Nc1ccc(O)cc1 [3(q), (1aS,3aR,6bR)-5-[(1,4-Dimethyl-1H-1,2,4-triazol-5-ylio)methylsulphanyl]-2-(4-hydroxy-phenylcarbamoyl)-1-oxo-1a,2,3,3a,4,6b-hexahydro-1H-2,6a-diazacyclobut[cd]indene-6-carboxylate]

MIC C. freundii 1982 (D) [1]: 0.5 µg/mL
MIC E. coli 1346 (E) (E. coli 1346): 8 µg/mL (≈ 22.4 µM)
SMILES: Cc1nnc(SCC2=C(C(=O)O)N3C(=O)[C@H]4NC[C@@H](S2)[C@H]43)s1 [40(h), (1aS,3aR,6bS)-5-[5-Methyl-1,3,4-thiadiazol-2-ylsulphanylmethyl]-1-oxo-4-thia-1,1a,2,3,3a,6b-hexahydro-2,6a-diazacyclobut[cd]indene-6-carboxylic acid]
